Experimental data published in publication PMC10682101, “In vitro pharmacological characterization of standard and new lysophosphatidic acid receptor antagonists using dynamic mass redistribution assay” (Frontiers in Pharmacology, 2023).
Like-named read-outs stand apart in the source and are kept apart here.

Columns and labels:
[1] = biological target: T1, human LPA2 receptor (Homo sapiens, UniProt Q9HBW0); assay: Dynamic mass redistribution (DMR) assay in CHOLPA2 cells; conditions: for DMR effect per se: concentration–response up to highest concentration tested; for Agonism Emax / Agonism pEC50: negative DMR signal, peak, up to 10 µM (compound 35 up to 1 µM), °inactive at 10 μM; for DMR response: CHOLPA2 cells, compound 10 μM, mean ± s.e.m.; for Shift of the concentration–response curve to LPA: antagonism protocol, 1 µM
T1 sequence (Q9HBW0 whole entry): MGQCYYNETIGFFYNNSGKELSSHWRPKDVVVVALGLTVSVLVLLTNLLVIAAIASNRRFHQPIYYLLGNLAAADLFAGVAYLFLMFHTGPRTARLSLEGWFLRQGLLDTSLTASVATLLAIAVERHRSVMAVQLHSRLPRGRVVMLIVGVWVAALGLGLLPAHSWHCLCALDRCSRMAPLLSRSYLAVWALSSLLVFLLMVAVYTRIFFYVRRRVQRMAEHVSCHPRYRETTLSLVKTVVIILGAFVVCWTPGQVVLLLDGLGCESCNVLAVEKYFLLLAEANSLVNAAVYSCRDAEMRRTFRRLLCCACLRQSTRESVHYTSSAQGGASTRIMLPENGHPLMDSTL
Description: Confluent cells were sub-cultured using trypsin/EDTA and used for experiments. Cells were seeded at a density of 20,000 cells/well in 30 µL into fibronectin-coated EnspireTM-LC 384-well plates and cultured for 20 h to form a confluent monolayer. On the day of the experiment, the cells were manually washed twice and maintained with assay buffer (HBSS with 20 mM HEPES, 0.01% BSA) for 90 min before DMR experiments. DMR was monitored in real time with a temporal resolution of 44 s throughout the assay. Experiments were performed at 37°C using an EnSight Multimode Plate Reader (PerkinElmer). The agonism protocol was as follows: before addition of the ligand, the DMR signal was measured for 5 min, and the average of the signals recorded during this period was set as the baseline (pm = 0). Compounds are added manually in a volume of 10 µL, and the triggered DMR signals were recorded for 60 min. […] Responses were described in the form of picometer shift over time (seconds) following the subtraction of values from vehicle-treated wells. Maximum picometer (pm) modification (peak) and area under the curve (AUC) were used to determine the agonist response.
All data were analyzed using GraphPad Prism 9.4 (La Jolla, CA, United States). Concentration–response curves were fitted using the four-parameter log-logistic equation. Data are expressed in the form mean ± s.e.m. across n experiments performed in duplicate. […] In practice, equiactive concentrations of the agonist in the absence ([A]) and presence ([A’]) of a non-competitive antagonist ([B]) were compared in a double reciprocal plot describing a straight line, and pKB was derived from the equation: pKB = log[(slope—1)/[B]]. […] Maximal effect data were analyzed using the Student’s t-test or a one-way ANOVA followed by Dunnett’s post-hoc test.

[2] = biological target: T2, human LPA1 receptor (Homo sapiens, UniProt Q92633); assay: Calcium mobilization assay in CHOLPA1 cells; conditions: for Effect per se: 1 µM, data not shown; for Shift of the concentration–response curve to LPA: antagonism protocol (compound 35, compound 20 at 1 µM); for Effect on LPA maximal effect: tested as antagonist
T2 sequence (Q92633 whole entry): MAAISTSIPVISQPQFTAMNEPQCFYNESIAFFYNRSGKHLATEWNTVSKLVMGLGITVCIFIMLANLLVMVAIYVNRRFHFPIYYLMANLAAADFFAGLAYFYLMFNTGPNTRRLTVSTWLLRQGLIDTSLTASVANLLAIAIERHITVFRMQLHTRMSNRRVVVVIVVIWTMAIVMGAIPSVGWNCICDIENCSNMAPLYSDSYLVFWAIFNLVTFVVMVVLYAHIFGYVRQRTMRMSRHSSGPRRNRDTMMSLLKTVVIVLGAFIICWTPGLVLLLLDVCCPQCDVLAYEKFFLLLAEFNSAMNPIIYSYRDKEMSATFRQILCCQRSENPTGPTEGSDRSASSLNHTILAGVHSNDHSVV

[3] = biological target: T2, human LPA1 receptor; assay: Dynamic mass redistribution (DMR) assay in CHOLPA1 cells; conditions: for EC50: Agonism pEC50, CHOLPA1, DMR; for Shift of the concentration–response curve to LPA: antagonism protocol; for Shift of the concentration–response curve to LPA / Effect on LPA maximal effect: 1 µM; for Agonism Emax: negative DMR signal; for Effect on LPA maximal effect: tested as antagonist; for DMR response: CHOLPA1 cells, compound 10 μM, mean ± s.e.m.
Description: All data were analyzed using GraphPad Prism 9.4 (La Jolla, CA, United States). Concentration–response curves were fitted using the four-parameter log-logistic equation. Data are expressed in the form mean ± s.e.m. across n experiments performed in duplicate. Agonist potency is expressed in the form pEC50, which is the negative logarithm to base 10 of the agonist molar concentration that produces 50% of the maximal possible effect of that agonist. […] In practice, equiactive concentrations of the agonist in the absence ([A]) and presence ([A’]) of a non-competitive antagonist ([B]) were compared in a double reciprocal plot describing a straight line, and pKB was derived from the equation: pKB = log[(slope—1)/[B]]. […] Maximal effect data were analyzed using the Student’s t-test or a one-way ANOVA followed by Dunnett’s post-hoc test.

[4] = test system: human lung fibroblast proliferation; design: method as in Qian et al., 2012; conditions: inhibiting LPA-induced human lung fibroblast proliferation; ref Qian et al., 2012; cited from earlier work
[5] = biological target: T1, human LPA2 receptor; assay: Calcium mobilization assay in CHOLPA2 cells; conditions: for Effect per se / Shift of the concentration–response curve to LPA: 1 µM; for Effect per se: data not shown; for Agonism Emax / Agonism pEC50: #inactive at 1 μM; for Shift of the concentration–response curve to LPA: antagonism protocol
[6] = test system: CHO wild-type cells; assay: DMR assay in CHO wild-type cells (control); assay type: cell-based; conditions: for DMR response: CHO cells, compound 10 μM, mean ± s.e.m.
Description: Confluent cells were sub-cultured using trypsin/EDTA and used for experiments. Cells were seeded at a density of 20,000 cells/well in 30 µL into fibronectin-coated EnspireTM-LC 384-well plates and cultured for 20 h to form a confluent monolayer. On the day of the experiment, the cells were manually washed twice and maintained with assay buffer (HBSS with 20 mM HEPES, 0.01% BSA) for 90 min before DMR experiments. DMR was monitored in real time with a temporal resolution of 44 s throughout the assay. Experiments were performed at 37°C using an EnSight Multimode Plate Reader (PerkinElmer). The agonism protocol was as follows: before addition of the ligand, the DMR signal was measured for 5 min, and the average of the signals recorded during this period was set as the baseline (pm = 0). Compounds are added manually in a volume of 10 µL, and the triggered DMR signals were recorded for 60 min. The antagonism protocol was as follows: antagonists were added manually 25 min before reading the 5 min baseline. […] Responses were described in the form of picometer shift over time (seconds) following the subtraction of values from vehicle-treated wells. Maximum picometer (pm) modification (peak) and area under the curve (AUC) were used to determine the agonist response.

[7] = biological target: LPA2 receptor; design: method as in Schiemann et al., 2012; conditions: inhibition of LPA effects on Ca2+ mobilization, cells expressing LPA2; ref Schiemann et al., 2012; cited from earlier work
[8] = test system: LPA1 receptor; design: method as in Ohta et al., 2003; conditions: inositol phosphate test; ref Ohta et al., 2003; cited from earlier work
[9] = test system: LPA1 receptor; design: method as in Shimizu and Nakayama, 2017; conditions: cAMP assay; ref Shimizu and Nakayama, 2017; cited from earlier work
[10] = biological target: LPA1/3; design: method as in Ohta et al., 2003; conditions: LPA1/3 antagonist; ref Ohta et al., 2003; read-out: Ki estimated from binding experiments; cited from earlier work
[11] = test system: LPA1/3; design: method as in Ohta et al., 2003; conditions: ref Ohta et al., 2003; cited from earlier work
[12] = test system: LPA1 receptor; design: method as in Ohta et al., 2003; conditions: GTPγS binding assay; ref Ohta et al., 2003; cited from earlier work
[13] = Antagonism pKB (pKB/pA2), CHOLPA1, calcium mobilization, Gaddum method, LPA curve in absence and presence of 0.1 µM antagonist
[14] = CHOLPA1, calcium mobilization, *inactive at 0.1 µM
[15] = negative DMR signal (inverse agonism), peak, up to 10 µM (compound 35 up to 1 µM), °inactive at 10 μM
[16] = CHOLPA1, DMR, peak, up to 10 µM (compound 35 up to 1 µM), °inactive at 10 μM
[17] = CHOLPA1, calcium mobilization, #inactive at 1 μM

Structure (SMILES) | DMR effect per se ([1]; CHOLPA2, DMR) | Agonism Emax ([1]; CHOLPA2, DMR) | Agonism pEC50 ([1]; CHOLPA2, DMR) | DMR response [1] | Kb [2, 13] | Effect per se ([2]; CHOLPA1, calcium mobilization) | Agonism Emax [2, 14] | Agonism pEC50 [2, 14] | Shift of the concentration–response curve to LPA ([2]; CHOLPA1, calcium mobilization) | Effect on LPA maximal effect ([2]; CHOLPA1, calcium mobilization) | EC50 [3, 15] | Shift of the concentration–response curve to LPA ([3]; CHOLPA1, DMR) | Agonism Emax [3, 16] | Effect on LPA maximal effect ([3]; CHOLPA1, DMR) | DMR response [3] | Effect per se ([5]; CHOLPA2, calcium mobilization) | Agonism Emax ([5]; CHOLPA2, calcium mobilization) | Agonism pEC50 ([5]; CHOLPA2, calcium mobilization) | DMR response [6] | Shift of the concentration–response curve to LPA ([1]; CHOLPA2, DMR) | other results
Cc1nnn(-c2ccc(-c3ccc(C4(C(=O)O)CC4)cc3)cc2)c1NC(=O)O[C@H](C)c1ccccc1 [RO 6842262] | inactive per se, or slightly active only at the higher concentration tested | Inactive° | Inactive° | 3 ± 21 pm | 0.00204 µM | did not produce any effect per se | Inactive* | Inactive* | shifted the concentration–response curve to LPA to the right | reduced the LPA maximal effect in a concentration-dependent manner | 0.049 µM | shifted the concentration–response curve to LPA to the right | −80 ± 16 pm | without changing the maximal effect | −66 ± 16 pm | did not produce any effect per se | Inactive^# | Inactive^# | −36 ± 12 pm |  | LPA1 selectivity (vs. LPA2) ([2]; assay not specified): > 30 fold; Potency relative to KI 16425 [4]: 10 fold
O=C1C[C@@](O)(C(F)(F)F)c2c(-c3cccc(F)c3)n[nH]c2N1 [Compound 20] |  | −94 ± 6 pm |  | −119 ± 25 pm |  | did not produce any effect per se |  |  | did not shift the concentration–response curve to LPA to the right |  |  | did not shift the concentration–response curve to LPA to the right | Inactive° |  | −31 ± 17 pm | did not produce any effect per se | Inactive^# | Inactive^# | −26 ± 8 pm | shifted the concentration–response curve to LPA to the right | EC50 [1]: 0.148 µM; Agonism Emax ([1]; CHOLPA2, DMR, listed as Merck compound 20): −94 pm; Time of maximum peak modification of the DMR response after administration ([1]; CHOLPA2, DMR, slow onset): ~60 min; Kb ([2]; Antagonism pKB/pA2, CHOLPA1, calcium mobilization, LPA curve in absence and presence of 1 µM compound): > 1 µM; Agonism Emax [2, 17]: Inactive^#; Agonism pEC50 [2, 17]: Inactive^#; Agonism pEC50 ([3]; CHOLPA1, DMR, negative DMR signal (inverse agonism), peak, up to 10 µM (compound 35 up to 1 µM), °inactive at 10 μM): Inactive°; DMR effect per se ([3]; CHOLPA1, DMR, up to highest concentration tested (10 μM; compound 35 1 µM)): inactive up to 10 μM; pIC50 [7]: > 6; Kb [5]: 0.0562 µM; Shift of the concentration–response curve to LPA ([5]; CHOLPA2, calcium mobilization): shifted the concentration–response curve to LPA to the right; Effect on LPA maximal effect ([5]; CHOLPA2, calcium mobilization, tested as antagonist): induced a reduction in LPA maximal effects; DMR effect per se ([6]; CHO wild-type cells, 10 µM): failed to evoke effects per se
Cc1noc(-c2ccc(CSCCC(=O)O)cc2)c1NC(=O)OC(C)c1ccccc1Cl (stereo not shown) [KI 16425] | inactive per se, or slightly active only at the higher concentration tested | Crc incomplete | Crc incomplete | −95 ± 4 pm | 0.00309 µM | did not produce any effect per se | Inactive* | Inactive* | shifted the concentration–response curve to LPA to the right | reduced the LPA maximal effect in a concentration-dependent manner | 0.0676 µM | shifted the concentration–response curve to LPA to the right | −110 ± 17 pm | without changing the maximal effect | −101 ± 7 pm | did not produce any effect per se | Inactive^# | Inactive^# | −42 ± 7 pm | shifted the concentration–response curve to LPA to the right | Inverse agonism activity [8]: this has not been replicated; Antagonism pKB (pKB/pA2) ([2]; CHOLPA1, calcium mobilization, Gaddum method, LPA curve in absence and presence of 0.1 µM antagonist): ~8.5; Inverse agonism activity [9]: slight degree of inverse agonism activity; Ki [10]: 0.67 µM; Shift of the concentration–response curve to LPA ([5]; CHOLPA2, calcium mobilization): shifted the concentration–response curve to LPA to the right; Selectivity for LPA1/3 vs. LPA2 [11]: 20 fold; Inverse agonism activity [12]: slight degree of inverse agonism activity
